Tests used:
[1] = target: T1, Neurotensin (Homo sapiens, UniProt P30989); experiment: biochemical; type: binding; conditions: read-out: Pass 1 (10^−5 M) % Inhibition
T1 construct: expressed in transfected cells

[2] = target: Opiate, Kappa 1 (UniProt P41144); type: binding
[3] = target: T2, Dopamine, D3 (Rattus norvegicus, UniProt P19020); experiment: Dopamine, D3 (Rat Recombinant); [3H]7-OH-DPAT; type: binding; conditions: read-out: Pass 1 (10^−5 M) % Inhibition
T2 construct: expressed in transfected cells

[4] = tested on: Glutamate Transport; experiment: Glutamate Transport; [3H]Glutamic Acid; type: biochemical; conditions: 10^−5 M
[5] = target: Adenosine, A1 (UniProt P25099); experiment: Adenosine, A1; [3H]CPX; type: binding; conditions: 10^−5 M
[6] = target: T3, Sigma 1 (Cavia porcellus, UniProt Q60492); experiment: Sigma 1; [3H]-(+)-Pentazocine; type: binding, guinea pig
T3 construct: Fresh guinea pig whole brain was obtained following decapitation; from tissue; host or cells: guinea pig whole brain membranes

[7] = target: T4, Monoamine Oxidase A, Peripheral (Rattus norvegicus, UniProt P21396); experiment: biochemical; conditions: read-out: Pass 1 (10^−5 M) % Inhibition
T4 construct: no other source notation after assay name denotes animal cell or animal tissue source; from tissue

[8] = tested on: GABA Transport; type: biochemical; conditions: 10^−5 M
[9] = target: T5, Thromboxane A2 (Homo sapiens, UniProt P21731); experiment: Thromboxane A2 (Human); [3H]SQ 29,548; type: binding; conditions: read-out: Pass 1 (10^−5 M) % Inhibition
T5 construct: from human cell lines; endogenous in cells

[10] = tested on: Glutamate, Chloride Dependent Site; experiment: Glutamate, Chloride Dependent Site; [3H]Glutamic Acid; type: binding; conditions: 10^−5 M
[11] = target: T6, Adrenergic, Beta 1 (Homo sapiens, UniProt P08588); experiment: Adrenergic, Beta 1 (Human Recombinant); [125I]Iodocyanopindolol; type: binding; conditions: read-out: Pass 1 (10^−5 M) % Inhibition
T6 construct: expressed in transfected cells

[12] = target: Calcium Channel, Type L (Dihydropyridine Site) (Rattus norvegicus, UniProt P22002); experiment: Calcium Channel, Type L (Dihydropyridine Site); [3H]Nitrendipine; type: binding; conditions: read-out: Pass 1 (10^−5 M) % Inhibition
[13] = target: T7, Adenosine, A2A (Homo sapiens, UniProt P29274); experiment: biochemical; type: binding; conditions: read-out: Pass 1 (10^−5 M) % Inhibition
T7 construct: expressed in transfected cells

[14] = target: T8, Muscarinic, M5 (Homo sapiens, UniProt P08912); experiment: biochemical; type: binding; conditions: read-out: Pass 1 (10^−5 M) % Inhibition
T8 construct: expressed in transfected cells

[15] = target: Serotonin Transporter (Homo sapiens, UniProt P31645); experiment: biochemical; conditions: read-out: Pass 1 (10^−5 M) % Inhibition
[16] = tested on: Vasoactive Intestine Peptide, Non-selective; type: binding; conditions: 10^−5 M
[17] = target: Protein Tyrosine Phosphatase, PTP-CD45 (Homo sapiens, UniProt P08575); experiment: Protein Tyrosine Phosphatase, PTP-CD45 (Human); substrate pNPP; type: biochemical; conditions: read-out: Pass 1 (10^−5 M) % Inhibition
[18] = target: Neuropeptide, NPY1 (Homo sapiens, UniProt P25929); experiment: Neuropeptide, NPY1 (Human); [125I]PYY; type: binding; conditions: read-out: Pass 1 (10^−5 M) % Inhibition
[19] = target: Angiotensin II, ATI (Homo sapiens, UniProt P30556); experiment: Angiotensin II, ATI (Human); [125I]-(Sar1-Ile8) Angiotensin; type: binding; conditions: read-out: Pass 1 (10^−5 M) % Inhibition
[20] = target: T9, Serotonin, 5HT1B (Rattus norvegicus, UniProt P28564); experiment: biochemical; type: binding; conditions: read-out: Pass 1 (10^−5 M) % Inhibition
T9 construct: no other source notation after assay name denotes animal cell or animal tissue source; from tissue; host or cells: animal cell or animal tissue, not specified

[21] = tested on: GABA Transaminase; experiment: GABA Transaminase; substrate [14C]-GABA; type: biochemical
[22] = tested on: Cholecystokinin, CCK1 (CCKA); experiment: Cholecystokinin, CCK1 (CCKA); [125I]CCK-8; type: binding; conditions: 10^−5 M
[23] = target: T10, Endothelin, ET-B (Homo sapiens, UniProt P24530); experiment: biochemical; type: binding; conditions: read-out: Pass 1 (10^−5 M) % Inhibition
T10 construct: expressed in transfected cells

[24] = target: T11, Dopamine, D4.4 (Homo sapiens, UniProt P21917); experiment: biochemical; type: binding; conditions: read-out: Pass 1 (10^−5 M) % Inhibition
T11 construct: expressed in transfected cells

[25] = target: Protein Phosphatase, PP2A (Homo sapiens, UniProt P67775); experiment: Protein Phosphatase, PP2A (Human); substrate DiFMUP; type: biochemical; conditions: read-out: Pass 1 (10^−5 M) % Inhibition
[26] = target: T12, Orphanin (Homo sapiens, UniProt P41146); experiment: biochemical; type: binding; conditions: read-out: Pass 1 (10^−5 M) % Inhibition
T12 construct: expressed in transfected cells

[27] = target: Adrenergic, Alpha 2B (UniProt P19328); type: binding
[28] = target: Adenosine Transporter (Homo sapiens, UniProt Q99808); experiment: biochemical; type: binding; conditions: read-out: Pass 1 (10^−5 M) % Inhibition
[29] = target: Dopamine Transporter (Cavia porcellus, UniProt H0WCX4); experiment: biochemical; type: binding, Guinea Pig
[30] = target: T13, Vasopressin 1 (Rattus norvegicus, UniProt P30560); experiment: biochemical; type: binding; conditions: read-out: Pass 1 (10^−5 M) % Inhibition
T13 construct: no other source notation after assay name denotes animal cell or animal tissue source; from tissue

[31] = target: T14, Dopamine, D2s (Homo sapiens, UniProt P14416); experiment: Dopamine, D2s (Human Recombinant); [3H]-Spiperone; type: binding; conditions: read-out: Pass 1 (10^−5 M) % Inhibition
T14 construct: expressed in transfected cells

[32] = tested on: Glutamate, MK-801 Site; experiment: Glutamate, MK-801 Site; [3H]MK-801; type: binding; conditions: 10^−5 M
[33] = target: Adenosine, A2 (UniProt P30543); experiment: Adenosine, A2; [3H]CGS21680; type: binding
[34] = target: Norepinephrine Transporter (Rattus norvegicus, UniProt Q9WTR4); experiment: biochemical; type: binding; conditions: read-out: Pass 1 (10^−5 M) % Inhibition
[35] = target: Progesterone (Bos taurus, UniProt F1N712); experiment: Progesterone; [3H]Promegestone; type: binding; conditions: read-out: Pass 1 (10^−5 M) % Inhibition
[36] = target: T15, Serotonin, 5HT6 (Homo sapiens, UniProt P50406); experiment: biochemical; type: binding; conditions: read-out: Pass 1 (10^−5 M) % Inhibition
T15 construct: expressed in transfected cells

[37] = tested on: Choline Acetyltransferase; experiment: Choline Acetyltransferase; substrate [14C]Acetyl Coenzyme; type: biochemical; conditions: 10^−5 M
[38] = target: T16, Muscarinic, M4 (Homo sapiens, UniProt P08173); experiment: biochemical; type: binding; conditions: read-out: Pass 1 (10^−5 M) % Inhibition
T16 construct: expressed in transfected cells

[39] = target: Serotonin, 5HT3 (Mus musculus, UniProt P23979); experiment: biochemical; type: binding
[40] = read-out: Pass 1 (10^−5 M) % Inhibition

T3 sequence (Q60492 whole entry): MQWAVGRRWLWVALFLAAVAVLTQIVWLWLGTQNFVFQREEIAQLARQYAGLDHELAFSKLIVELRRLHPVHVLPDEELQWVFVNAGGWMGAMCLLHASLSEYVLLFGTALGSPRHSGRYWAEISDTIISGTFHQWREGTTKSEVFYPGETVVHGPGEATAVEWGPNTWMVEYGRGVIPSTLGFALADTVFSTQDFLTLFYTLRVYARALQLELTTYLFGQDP
Chain of Dopamine Transporter (H0WCX4 1-619): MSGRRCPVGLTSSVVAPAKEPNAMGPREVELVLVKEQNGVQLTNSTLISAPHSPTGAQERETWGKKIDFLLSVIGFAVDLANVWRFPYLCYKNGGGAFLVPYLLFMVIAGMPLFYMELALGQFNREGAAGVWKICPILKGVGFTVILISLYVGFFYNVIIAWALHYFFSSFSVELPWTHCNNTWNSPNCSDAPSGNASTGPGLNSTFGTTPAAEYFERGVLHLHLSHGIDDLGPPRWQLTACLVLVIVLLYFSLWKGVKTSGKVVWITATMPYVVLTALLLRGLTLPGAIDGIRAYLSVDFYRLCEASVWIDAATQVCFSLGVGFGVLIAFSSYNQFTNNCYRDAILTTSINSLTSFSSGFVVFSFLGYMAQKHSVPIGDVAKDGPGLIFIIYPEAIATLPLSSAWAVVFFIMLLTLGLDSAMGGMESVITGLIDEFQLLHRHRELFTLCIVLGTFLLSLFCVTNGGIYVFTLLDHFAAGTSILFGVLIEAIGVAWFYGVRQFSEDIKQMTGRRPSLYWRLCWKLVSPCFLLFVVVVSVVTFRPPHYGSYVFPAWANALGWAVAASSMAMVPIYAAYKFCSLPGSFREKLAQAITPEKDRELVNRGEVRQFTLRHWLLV
Chain of Serotonin, 5HT3 (P23979 24-489): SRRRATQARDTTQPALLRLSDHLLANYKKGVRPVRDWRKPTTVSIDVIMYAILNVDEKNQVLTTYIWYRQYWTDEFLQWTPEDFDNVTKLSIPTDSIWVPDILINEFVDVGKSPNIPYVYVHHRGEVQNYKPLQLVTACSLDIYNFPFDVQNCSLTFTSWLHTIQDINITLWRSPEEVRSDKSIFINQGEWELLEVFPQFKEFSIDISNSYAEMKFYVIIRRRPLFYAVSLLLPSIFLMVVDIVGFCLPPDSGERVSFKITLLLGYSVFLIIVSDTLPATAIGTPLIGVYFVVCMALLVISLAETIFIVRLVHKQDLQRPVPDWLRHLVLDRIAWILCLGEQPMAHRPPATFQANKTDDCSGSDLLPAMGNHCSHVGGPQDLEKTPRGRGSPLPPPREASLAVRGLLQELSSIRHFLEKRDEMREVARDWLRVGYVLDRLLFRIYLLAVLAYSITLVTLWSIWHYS
Chain of Adenosine, A1 (P25099 whole entry, looked up): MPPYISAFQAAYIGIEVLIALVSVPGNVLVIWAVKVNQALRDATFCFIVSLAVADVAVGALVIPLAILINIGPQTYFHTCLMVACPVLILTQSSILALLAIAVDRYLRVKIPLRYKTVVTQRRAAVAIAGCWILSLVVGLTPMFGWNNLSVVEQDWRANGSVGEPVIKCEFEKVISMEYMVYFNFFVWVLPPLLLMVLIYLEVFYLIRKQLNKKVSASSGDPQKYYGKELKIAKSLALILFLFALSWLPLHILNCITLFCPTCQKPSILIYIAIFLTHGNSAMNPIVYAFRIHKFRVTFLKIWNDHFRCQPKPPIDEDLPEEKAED
T1 sequence (P30989 whole entry): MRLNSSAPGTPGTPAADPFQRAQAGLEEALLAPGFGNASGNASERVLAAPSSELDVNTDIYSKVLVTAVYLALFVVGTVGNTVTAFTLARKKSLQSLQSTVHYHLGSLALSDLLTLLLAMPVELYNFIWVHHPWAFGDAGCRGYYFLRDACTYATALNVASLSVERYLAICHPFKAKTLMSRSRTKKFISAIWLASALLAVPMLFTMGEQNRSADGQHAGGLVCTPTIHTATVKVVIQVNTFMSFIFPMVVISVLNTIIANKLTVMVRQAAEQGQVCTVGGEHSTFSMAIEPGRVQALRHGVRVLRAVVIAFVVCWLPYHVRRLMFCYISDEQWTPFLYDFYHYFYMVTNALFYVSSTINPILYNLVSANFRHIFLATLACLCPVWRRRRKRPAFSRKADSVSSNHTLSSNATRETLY
Chain of Adrenergic, Alpha 2B (P19328 whole entry): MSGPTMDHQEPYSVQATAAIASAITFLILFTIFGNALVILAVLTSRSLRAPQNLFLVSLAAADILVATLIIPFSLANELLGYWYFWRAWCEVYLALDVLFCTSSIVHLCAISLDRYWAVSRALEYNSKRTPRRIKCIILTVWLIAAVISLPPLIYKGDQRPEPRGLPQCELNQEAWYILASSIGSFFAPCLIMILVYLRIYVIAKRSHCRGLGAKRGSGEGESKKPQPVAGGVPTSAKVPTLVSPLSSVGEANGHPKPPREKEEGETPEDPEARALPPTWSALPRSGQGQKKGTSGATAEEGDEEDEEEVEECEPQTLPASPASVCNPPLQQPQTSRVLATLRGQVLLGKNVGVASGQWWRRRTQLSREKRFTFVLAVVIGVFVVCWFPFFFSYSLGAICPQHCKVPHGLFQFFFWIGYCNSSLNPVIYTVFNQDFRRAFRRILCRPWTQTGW
T5 sequence (P21731 whole entry): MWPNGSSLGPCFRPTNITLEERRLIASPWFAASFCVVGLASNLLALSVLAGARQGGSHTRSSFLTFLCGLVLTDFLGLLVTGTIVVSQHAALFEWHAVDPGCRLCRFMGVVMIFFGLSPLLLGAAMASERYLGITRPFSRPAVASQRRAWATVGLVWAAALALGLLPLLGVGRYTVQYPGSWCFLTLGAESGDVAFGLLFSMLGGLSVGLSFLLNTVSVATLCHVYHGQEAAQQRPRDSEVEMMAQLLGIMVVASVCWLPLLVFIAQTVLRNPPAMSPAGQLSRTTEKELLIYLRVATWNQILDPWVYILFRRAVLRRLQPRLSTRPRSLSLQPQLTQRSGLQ
T7 sequence (P29274 whole entry): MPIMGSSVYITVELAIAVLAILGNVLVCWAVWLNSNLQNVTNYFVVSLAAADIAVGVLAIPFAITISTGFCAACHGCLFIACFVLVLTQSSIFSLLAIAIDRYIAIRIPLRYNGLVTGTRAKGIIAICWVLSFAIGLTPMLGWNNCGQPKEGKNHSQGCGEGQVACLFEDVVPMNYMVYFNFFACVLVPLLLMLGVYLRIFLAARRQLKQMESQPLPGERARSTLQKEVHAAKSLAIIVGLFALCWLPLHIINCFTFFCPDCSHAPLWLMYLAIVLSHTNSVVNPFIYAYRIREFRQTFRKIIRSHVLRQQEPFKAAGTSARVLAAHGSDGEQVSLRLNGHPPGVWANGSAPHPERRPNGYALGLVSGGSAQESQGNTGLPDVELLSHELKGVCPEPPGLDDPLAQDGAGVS
Chain of Protein Phosphatase, PP2A (P67775 whole entry): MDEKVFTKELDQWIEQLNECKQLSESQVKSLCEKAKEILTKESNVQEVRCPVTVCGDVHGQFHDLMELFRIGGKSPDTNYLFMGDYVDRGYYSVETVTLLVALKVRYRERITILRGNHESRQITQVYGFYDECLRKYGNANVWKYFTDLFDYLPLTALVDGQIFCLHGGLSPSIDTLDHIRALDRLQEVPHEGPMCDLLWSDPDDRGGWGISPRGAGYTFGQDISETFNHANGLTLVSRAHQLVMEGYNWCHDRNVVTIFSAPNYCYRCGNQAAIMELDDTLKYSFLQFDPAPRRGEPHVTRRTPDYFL
T12 sequence (P41146 whole entry): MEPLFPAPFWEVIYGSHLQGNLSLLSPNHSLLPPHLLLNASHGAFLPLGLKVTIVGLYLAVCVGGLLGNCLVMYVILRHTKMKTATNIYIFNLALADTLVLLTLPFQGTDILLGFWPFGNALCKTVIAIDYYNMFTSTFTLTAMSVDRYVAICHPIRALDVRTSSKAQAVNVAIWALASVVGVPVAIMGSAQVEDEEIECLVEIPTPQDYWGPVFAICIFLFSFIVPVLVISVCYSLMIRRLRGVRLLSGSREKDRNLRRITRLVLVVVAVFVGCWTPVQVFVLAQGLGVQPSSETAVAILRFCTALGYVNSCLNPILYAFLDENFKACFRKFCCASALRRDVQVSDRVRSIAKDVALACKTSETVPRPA
Chain of Norepinephrine Transporter (Q9WTR4 1-597): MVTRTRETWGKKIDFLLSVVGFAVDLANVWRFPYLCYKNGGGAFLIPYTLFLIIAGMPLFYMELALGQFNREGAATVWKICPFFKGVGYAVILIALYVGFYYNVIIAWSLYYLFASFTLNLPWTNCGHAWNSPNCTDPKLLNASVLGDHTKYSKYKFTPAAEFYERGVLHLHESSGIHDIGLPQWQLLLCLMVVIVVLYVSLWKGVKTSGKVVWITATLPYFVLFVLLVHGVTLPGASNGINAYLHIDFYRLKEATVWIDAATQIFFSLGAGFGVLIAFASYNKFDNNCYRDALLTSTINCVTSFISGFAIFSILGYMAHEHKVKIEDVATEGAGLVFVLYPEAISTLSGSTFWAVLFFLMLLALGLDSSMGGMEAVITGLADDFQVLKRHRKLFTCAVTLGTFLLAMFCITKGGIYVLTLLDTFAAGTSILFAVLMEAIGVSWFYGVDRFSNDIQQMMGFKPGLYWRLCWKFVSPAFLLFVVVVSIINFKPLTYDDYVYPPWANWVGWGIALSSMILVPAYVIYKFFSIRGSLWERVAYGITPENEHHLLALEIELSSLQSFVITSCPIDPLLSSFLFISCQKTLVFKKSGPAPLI
Chain of Angiotensin II, ATI (P30556 whole entry): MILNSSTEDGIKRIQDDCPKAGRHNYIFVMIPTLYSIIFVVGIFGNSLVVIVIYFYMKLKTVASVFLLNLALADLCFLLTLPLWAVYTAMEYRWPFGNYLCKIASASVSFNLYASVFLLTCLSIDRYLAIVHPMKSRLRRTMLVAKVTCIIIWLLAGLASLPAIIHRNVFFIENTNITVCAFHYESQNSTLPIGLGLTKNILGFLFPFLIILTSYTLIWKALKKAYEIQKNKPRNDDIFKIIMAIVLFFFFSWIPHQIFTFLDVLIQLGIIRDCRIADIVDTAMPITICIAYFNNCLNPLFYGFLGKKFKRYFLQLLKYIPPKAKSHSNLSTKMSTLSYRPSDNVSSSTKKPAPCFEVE

Question: For `COC(=O)[C@H]1[C@@H](OC(=O)c2ccccc2)C[C@@H]2CC[C@H]1N2C` [cocaine], which inhibition at 10 µM [1] is on record?
Answer: Its inhibition at 10 µM is 19.1%.

Question: And the “Pass 1 (10^−5 M) % Inhibition” value [2]?
Answer: Its value is 10.19%.

Question: And the inhibition at 10 µM [3]?
Answer: Its inhibition at 10 µM is 30.2%.

Question: And the “Pass 1 (10^−5 M) % Inhibition” value [4]?
Answer: Its value is 24.20%.

Question: What about the “Pass 1 (10^−5 M) % Inhibition” value [5] of the same molecule?
Answer: Its value is 2.29%.

Question: And the Ki [6]?
Answer: Its Ki is 11.6 µM.

Question: What about the inhibition at 10 µM [6, 40] of the same molecule?
Answer: Its inhibition at 10 µM is 64.7%.

Question: What about the inhibition at 10 µM [7] of the same molecule?
Answer: Its inhibition at 10 µM is 32.8%.

Question: And the “Pass 1 (10^−5 M) % Inhibition” value [8]?
Answer: Its value is −19.43%.

Question: And the inhibition at 10 µM [9]?
Answer: The inhibition at 10 µM was 22.1%.

Question: And the “Pass 1 (10^−5 M) % Inhibition” value [10]?
Answer: The value was 5.36%.

Question: What about the inhibition at 10 µM [11] of the same molecule?
Answer: Its inhibition at 10 µM is 11.7%.

Question: What about the inhibition at 10 µM [12] of the same molecule?
Answer: The inhibition at 10 µM was 10.2%.

Question: And the inhibition at 10 µM [13]?
Answer: The inhibition at 10 µM was 25.9%.

Question: And the inhibition at 10 µM [14]?
Answer: Its inhibition at 10 µM is 6.01%.

Question: What about the inhibition at 10 µM [15] of the same molecule?
Answer: Its inhibition at 10 µM is 97.5%.

Question: And the “Pass 1 (10^−5 M) % Inhibition” value [16]?
Answer: Its value is 30.71%.

Question: And the inhibition at 10 µM [17]?
Answer: Its inhibition at 10 µM is 12%.

Question: What about the inhibition at 10 µM [18] of the same molecule?
Answer: Its inhibition at 10 µM is 26.6%.

Question: What about the inhibition at 10 µM [19] of the same molecule?
Answer: The inhibition at 10 µM was 21.2%.

Question: And the inhibition at 10 µM [20]?
Answer: Its inhibition at 10 µM is 3.31%.

Question: And the “Pass 1 (10^−5 M) % Inhibition” value [21]?
Answer: The value was 25.43%.

Question: What about the “Pass 1 (10^−5 M) % Inhibition” value [22] of the same molecule?
Answer: Its value is 11.15%.

Question: What about the inhibition at 10 µM [23] of the same molecule?
Answer: Its inhibition at 10 µM is 0.19%.

Question: And the inhibition at 10 µM [24]?
Answer: Its inhibition at 10 µM is 18.8%.

Question: And the inhibition at 10 µM [25]?
Answer: The inhibition at 10 µM was 15.3%.

Question: What about the inhibition at 10 µM [26] of the same molecule?
Answer: Its inhibition at 10 µM is 32.3%.

Question: And the “Pass 1 (10^−5 M) % Inhibition” value [27]?
Answer: The value was −3.82%.

Question: What about the inhibition at 10 µM [28] of the same molecule?
Answer: The inhibition at 10 µM was 16.5%.

Question: What about the Ki [29] of the same molecule?
Answer: The Ki was 0.321 µM.

Question: And the inhibition at 10 µM [29, 40]?
Answer: Its inhibition at 10 µM is 91.4%.

Question: And the inhibition at 10 µM [30]?
Answer: The inhibition at 10 µM was 0.98%.

Question: And the inhibition at 10 µM [31]?
Answer: The inhibition at 10 µM was 30.6%.

Question: What about the “Pass 1 (10^−5 M) % Inhibition” value [32] of the same molecule?
Answer: The value was −2.86%.

Question: What about the “Pass 1 (10^−5 M) % Inhibition” value [33] of the same molecule?
Answer: Its value is 26.30%.

Question: And the inhibition at 10 µM [34]?
Answer: The inhibition at 10 µM was 60%.

Question: What about the inhibition at 10 µM [35] of the same molecule?
Answer: The inhibition at 10 µM was -10.9%.

Question: What about the inhibition at 10 µM [36] of the same molecule?
Answer: The inhibition at 10 µM was 1.13%.

Question: And the “Pass 1 (10^−5 M) % Inhibition” value [37]?
Answer: Its value is 8.25%.

Question: And the inhibition at 10 µM [38]?
Answer: Its inhibition at 10 µM is 0.42%.

Question: What about the Ki ([39]; Pass 3 screening, nine concentrations, read-out: Ki Determination) of the same molecule?
Answer: Its Ki is 3.09 µM.

Question: And the inhibition at 10 µM [39, 40]?
Answer: Its inhibition at 10 µM is 60.3%.

From US20020187514A1 (priority 1999, published 2002)
